Test results from the OligoGym collection.
HELM strings list units from the 5' end as sugar, base in round brackets, then linkage (d deoxyribose, r ribose, m 2'-O-methyl, p phosphodiester). Strings are as the collection lists them; they lack the last nucleoside at the 3' end of the tested compound. [moe] = 2'-O-(2-methoxyethyl) (MOE); [sp] = phosphorothioate linkage; [m5C] = 5-methylcytosine

Molecular target: PRNP
Test: mouse, dose not given
Settings: ASO

Substance | 3 h FOB score [score 0-7]
RNA1{[moe](G)[sp].[moe]([m5C])p.[moe](A)p.[moe]([m5C])p.[moe](A)[sp].d([m5C])[sp].d(T)[sp].d(G)[sp].d(A)[sp].d([m5C])[sp].d([m5C])[sp].d(A)[sp].d(T)[sp].d(T)[sp].d(T)[sp].[moe](T)p.[moe](T)p.[moe](T)[sp].[moe](A)}$$$$ (last 3' nucleoside missing) | 0
RNA1{[moe](G)[sp].[moe]([m5C])p.[moe](A)p.[moe]([m5C])p.[moe](A)p.[moe]([m5C])p.d(T)[sp].d(G)[sp].d(A)[sp].d([m5C])[sp].d([m5C])[sp].d(A)[sp].d(T)[sp].d(T)[sp].d(T)[sp].d(T)[sp].[moe](T)p.[moe](T)[sp].[moe](A)}$$$$ (last 3' nucleoside missing) | 0
RNA1{[moe](G)[sp].[moe]([m5C])p.[moe](A)p.[moe]([m5C])p.[moe](A)p.d([m5C])[sp].d(T)[sp].d(G)[sp].d(A)[sp].d([m5C])[sp].d([m5C])[sp].d(A)[sp].d(T)[sp].d(T)[sp].[moe](T)[sp].[moe](T)p.[moe](T)p.[moe](T)}$$$$ (last 3' nucleoside missing) | 0
RNA1{[moe](G)[sp].[moe]([m5C])p.[moe](A)p.[moe]([m5C])p.d(A)[sp].d([m5C])[sp].d(T)[sp].d(G)[sp].d(A)[sp].d([m5C])[sp].d([m5C])[sp].d(A)[sp].d(T)[sp].d(T)[sp].[moe](T)p.[moe](T)p.[moe](T)p.[moe](T)[sp].[moe](A)}$$$$ (last 3' nucleoside missing) | 2.25
RNA1{[moe](G)[sp].[moe]([m5C])p.[moe](T)p.[moe](A)p.[moe](G)[sp].d(G)[sp].d(T)[sp].d(G)[sp].d(A)[sp].d([m5C])[sp].d(A)[sp].d(A)[sp].d(T)[sp].d(A)[sp].d(T)[sp].[moe]([m5C])p.[moe](A)p.[moe](A)[sp].[moe](A)}$$$$ (last 3' nucleoside missing) | 0
RNA1{[moe](G)[sp].[moe]([m5C])p.[moe](T)p.[moe](A)p.[moe](T)[sp].d(G)[sp].d(A)[sp].d(A)[sp].d(A)[sp].d(T)[sp].d([m5C])[sp].d(T)[sp].d([m5C])[sp].d(T)[sp].d(A)[sp].[moe]([m5C])p.[moe](T)p.[moe](A)[sp].[moe](A)}$$$$ (last 3' nucleoside missing) | 2.5
RNA1{[moe](G)[sp].[moe]([m5C])p.[moe](T)p.[moe](A)p.[moe](T)[sp].d([m5C])[sp].d(T)[sp].d(T)[sp].d(T)[sp].d([m5C])[sp].d(T)[sp].d(A)[sp].d(T)[sp].d(T)[sp].d(T)[sp].[moe](G)p.[moe](T)p.[moe](G)[sp].[moe](T)}$$$$ (last 3' nucleoside missing) | 1
RNA1{[moe](G)[sp].[moe]([m5C])p.[moe](T)p.[moe](T)p.[moe](A)[sp].d(A)[sp].d(T)[sp].d(T)[sp].d(A)[sp].d(G)[sp].d(T)[sp].d(T)[sp].d(A)[sp].d([m5C])[sp].d(A)[sp].[moe](T)p.[moe]([m5C])p.[moe](G)[sp].[moe](G)}$$$$ (last 3' nucleoside missing) | 4.5
RNA1{[moe](G)[sp].[moe]([m5C])p.[moe](T)p.[moe](T)p.[moe](A)[sp].d(T)[sp].d(T)[sp].d(A)[sp].d(T)[sp].d(T)[sp].d([m5C])[sp].d(A)[sp].d(T)[sp].d(G)[sp].d(T)[sp].[moe](T)p.[moe]([m5C])p.[moe](T)[sp].[moe]([m5C])}$$$$ (last 3' nucleoside missing) | 3.5
RNA1{[moe](G)[sp].[moe]([m5C])p.[moe](T)p.[moe](T)p.[moe](A)[sp].d([m5C])[sp].d(T)[sp].d([m5C])[sp].d(G)[sp].d(G)[sp].d([m5C])[sp].d(T)[sp].d(T)[sp].d(G)[sp].d(T)[sp].[moe](T)p.[moe]([m5C])p.[moe]([m5C])[sp].[moe](A)}$$$$ (last 3' nucleoside missing) | 5.25
RNA1{[moe](G)[sp].[moe]([m5C])p.[moe](T)p.[moe](T)p.[moe](A)p.[moe](T)p.d(T)[sp].d(A)[sp].d(T)[sp].d(T)[sp].d([m5C])[sp].d(A)[sp].d(T)[sp].d(G)[sp].d(T)[sp].d(T)[sp].[moe]([m5C])p.[moe](T)[sp].[moe]([m5C])}$$$$ (last 3' nucleoside missing) | 1.75
RNA1{[moe](G)[sp].[moe]([m5C])p.[moe](T)p.[moe](T)p.[moe](A)p.[moe]([m5C])p.d(T)[sp].d([m5C])[sp].d(G)[sp].d(G)[sp].d([m5C])[sp].d(T)[sp].d(T)[sp].d(G)[sp].d(T)[sp].d(T)[sp].[moe]([m5C])p.[moe]([m5C])[sp].[moe](A)}$$$$ (last 3' nucleoside missing) | 0.75
RNA1{[moe](G)[sp].[moe]([m5C])p.[moe](T)p.[moe](T)p.[moe](A)p.d(T)[sp].d(T)[sp].d(A)[sp].d(T)[sp].d(T)[sp].d([m5C])[sp].d(A)[sp].d(T)[sp].d(G)[sp].[moe](T)[sp].[moe](T)p.[moe]([m5C])p.[moe](T)}$$$$ (last 3' nucleoside missing) | 1
RNA1{[moe](G)[sp].[moe]([m5C])p.[moe](T)p.[moe](T)p.[moe](A)p.d([m5C])[sp].d(T)[sp].d([m5C])[sp].d(G)[sp].d(G)[sp].d([m5C])[sp].d(T)[sp].d(T)[sp].d(G)[sp].[moe](T)[sp].[moe](T)p.[moe]([m5C])p.[moe]([m5C])}$$$$ (last 3' nucleoside missing) | 4.5
RNA1{[moe](G)[sp].[moe]([m5C])p.[moe](T)p.[moe](T)p.[moe](T)[sp].d(G)[sp].d(G)[sp].d(A)[sp].d(T)[sp].d([m5C])[sp].d(T)[sp].d([m5C])[sp].d(T)[sp].d(T)[sp].d(A)[sp].[moe](G)p.[moe](A)p.[moe](T)[sp].[moe](T)}$$$$ (last 3' nucleoside missing) | 0
RNA1{[moe](G)[sp].[moe]([m5C])p.[moe](T)p.[moe](T)p.[moe]([m5C])[sp].d(T)[sp].d([m5C])[sp].d(A)[sp].d(A)[sp].d(T)[sp].d(T)[sp].d(T)[sp].d(T)[sp].d(T)[sp].d([m5C])[sp].[moe]([m5C])p.[moe](A)p.[moe](A)[sp].[moe]([m5C])}$$$$ (last 3' nucleoside missing) | 0
RNA1{[moe](G)[sp].[moe]([m5C])p.[moe](T)p.[moe](T)p.d(A)[sp].d(T)[sp].d(T)[sp].d(A)[sp].d(T)[sp].d(T)[sp].d([m5C])[sp].d(A)[sp].d(T)[sp].d(G)[sp].[moe](T)p.[moe](T)p.[moe]([m5C])p.[moe](T)[sp].[moe]([m5C])}$$$$ (last 3' nucleoside missing) | 1
RNA1{[moe](G)[sp].[moe]([m5C])p.[moe](T)p.[moe](T)p.d(A)[sp].d([m5C])[sp].d(T)[sp].d([m5C])[sp].d(G)[sp].d(G)[sp].d([m5C])[sp].d(T)[sp].d(T)[sp].d(G)[sp].[moe](T)p.[moe](T)p.[moe]([m5C])p.[moe]([m5C])[sp].[moe](A)}$$$$ (last 3' nucleoside missing) | 3.25
RNA1{[moe](G)[sp].[moe]([m5C])p.[moe](T)p.[moe]([m5C])p.[moe](T)[sp].d(A)[sp].d(T)[sp].d(T)[sp].d(A)[sp].d(A)[sp].d(T)[sp].d(A)[sp].d(G)[sp].d(G)[sp].d(T)[sp].[moe](T)p.[moe](A)p.[moe](G)[sp].[moe](G)}$$$$ (last 3' nucleoside missing) | 4.25
RNA1{[moe](G)[sp].[moe]([m5C])p.[moe]([m5C])p.[moe](A)p.[moe](A)[sp].d(G)[sp].d(G)[sp].d(G)[sp].d(T)[sp].d(A)[sp].d(T)[sp].d(T)[sp].d(G)[sp].d(A)[sp].d(T)[sp].[moe](T)p.[moe](A)p.[moe](G)[sp].[moe]([m5C])}$$$$ (last 3' nucleoside missing) | 3.5
RNA1{[moe](G)[sp].[moe]([m5C])p.[moe]([m5C])p.[moe](A)p.[moe](A)[sp].d(T)[sp].d(A)[sp].d(A)[sp].d(T)[sp].d(A)[sp].d(A)[sp].d([m5C])[sp].d(A)[sp].d(T)[sp].d(T)[sp].[moe](G)p.[moe]([m5C])p.[moe](A)[sp].[moe](G)}$$$$ (last 3' nucleoside missing) | 0
RNA1{[moe](G)[sp].[moe]([m5C])p.[moe]([m5C])p.[moe](A)p.[moe]([m5C])[sp].d(A)[sp].d(T)[sp].d(A)[sp].d(T)[sp].d(A)[sp].d(G)[sp].d(G)[sp].d(G)[sp].d(T)[sp].d([m5C])[sp].[moe]([m5C])p.[moe](T)p.[moe](T)[sp].[moe](T)}$$$$ (last 3' nucleoside missing) | 1.5
RNA1{[moe](G)[sp].[moe]([m5C])p.[moe]([m5C])p.[moe](A)p.[moe]([m5C])p.[moe](A)p.d(T)[sp].d(A)[sp].d(T)[sp].d(A)[sp].d(G)[sp].d(G)[sp].d(G)[sp].d(T)[sp].d([m5C])[sp].d([m5C])[sp].[moe](T)p.[moe](T)[sp].[moe](T)}$$$$ (last 3' nucleoside missing) | 4
RNA1{[moe](G)[sp].[moe]([m5C])p.[moe]([m5C])p.[moe](A)p.d([m5C])[sp].d(A)[sp].d(T)[sp].d(A)[sp].d(T)[sp].d(A)[sp].d(G)[sp].d(G)[sp].d(G)[sp].d(T)[sp].[moe]([m5C])p.[moe]([m5C])p.[moe](T)p.[moe](T)[sp].[moe](T)}$$$$ (last 3' nucleoside missing) | 3.75
RNA1{[moe](G)[sp].[moe]([m5C])p.[moe]([m5C])p.[moe](T)p.[moe](T)[sp].d(A)[sp].d(A)[sp].d(T)[sp].d(T)[sp].d(A)[sp].d([m5C])[sp].d([m5C])[sp].d(T)[sp].d(A)[sp].d(T)[sp].[moe](A)p.[moe](G)p.[moe](T)[sp].[moe](T)}$$$$ (last 3' nucleoside missing) | 1
RNA1{[moe](T)[sp].[moe](A)p.[moe](G)p.[moe](G)p.[moe]([m5C])[sp].d(T)[sp].d([m5C])[sp].d(T)[sp].d(T)[sp].d(T)[sp].d(T)[sp].d([m5C])[sp].d([m5C])[sp].d(A)[sp].d(G)[sp].[moe](G)p.[moe](T)p.[moe](G)[sp].[moe](T)}$$$$ (last 3' nucleoside missing) | 1
